Measured values published in article PMC12203311, “Design, synthesis, in silico and in vitro evaluation of pyrrole–indole hybrids as dual tubulin and aromatase inhibitors with potent anticancer activities” (RSC Advances, 2025).

Assays:
[1] = Cytotoxicity MTT assay, L929; type: cell-based, mouse; settings: mouse, L929 fibroblast cells; MTT, 48 hours
Outline: (§1)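 Seed 10 000 cells per well and let them grow overnight. Treat with compounds in medium for 48 h at 37 °C under 5% CO2. Replace medium with MTT at 0.5 mg mL^−1 for 3 h, dissolve formazan in DMSO, measure at 570 nm, normalise to DMSO control.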

[2] = test system: L929 normal mouse fibroblast cell line; test: Cytotoxicity MTT assay, L929; type: cell-based; settings: IC50 (L929)/IC50 (T47D)
Outline: as §1

LOX IMVI = test: NCI60 five-dose screen; type: cell-based; settings: Homo sapiens, melanoma; for CC50: read-out: LC50 (the source's name)
OVCAR-4 = test: NCI60 five-dose screen; type: cell-based; settings: Homo sapiens, OVCAR-4, ovarian cancer; for CC50: read-out: LC50 (the source's name)
BT-549 = test: NCI60 five-dose screen; type: cell-based; settings: Homo sapiens, BT-549, breast cancer; for CC50: read-out: LC50 (the source's name)
SF-539 = test: NCI60 five-dose screen; type: cell-based; settings: Homo sapiens, SF-539, CNS cancer; for CC50: read-out: LC50 (the source's name)
A498 = test: NCI60 five-dose screen; type: cell-based; settings: Homo sapiens, A498, renal cancer; for CC50: read-out: LC50 (the source's name)
DU-145 = test: NCI60 five-dose screen; type: cell-based; settings: Homo sapiens, DU-145, prostate cancer; for CC50: read-out: LC50 (the source's name)
[3] = test system: T47D breast cancer cell line; test: Cytotoxicity MTT assay, T47D; type: cell-based, human; settings: Homo sapiens, T47D; MTT, 48 hours
Outline: as §1

HOP-92 = test: NCI60 five-dose screen; type: cell-based; settings: Homo sapiens, HOP-92, NSC lung cancer; for CC50: read-out: LC50 (the source's name)
PC-3 = test: NCI60 five-dose screen; type: cell-based; settings: Homo sapiens, PC-3, prostate cancer; for CC50: read-out: LC50 (the source's name)
NCI-H460 = test: NCI60 five-dose screen; type: cell-based; settings: Homo sapiens, NCI-H460, NSC lung cancer; for CC50: read-out: LC50 (the source's name)
SNB-75 = test: NCI60 five-dose screen; type: cell-based; settings: Homo sapiens, SNB-75, CNS cancer; for CC50: read-out: LC50 (the source's name)
CAKI-1 = test: NCI60 five-dose screen; type: cell-based; settings: Homo sapiens, CAKI-1, renal cancer; for CC50: read-out: LC50 (the source's name)
HT29 = test: NCI60 five-dose screen; type: cell-based; settings: Homo sapiens, HT-29, HT29, colon cancer; for CC50: read-out: LC50 (the source's name)
HOP-62 = test: NCI60 five-dose screen; type: cell-based; settings: Homo sapiens, HOP-62, NSC lung cancer; for CC50: read-out: LC50 (the source's name)
NCI-H226 = test: NCI60 five-dose screen; type: cell-based; settings: Homo sapiens, NCI-H226, NSC lung cancer; for CC50: read-out: LC50 (the source's name)
HCT-15 = test: NCI60 five-dose screen; type: cell-based; settings: Homo sapiens, HCT-15, colon cancer; for CC50: read-out: LC50 (the source's name)
K-562 = test: NCI60 five-dose screen; type: cell-based; settings: Homo sapiens, K562, K-562, leukemia; for CC50: read-out: LC50 (the source's name)
A549/ATCC = test: NCI60 five-dose screen; type: cell-based; settings: Homo sapiens, NSC lung cancer; for CC50: read-out: LC50 (the source's name)
OVCAR-3 = test: NCI60 five-dose screen; type: cell-based; settings: Homo sapiens, OVCAR-3, ovarian cancer; for CC50: read-out: LC50 (the source's name)
ACHN = test: NCI60 five-dose screen; type: cell-based; settings: Homo sapiens, renal cancer; for CC50: read-out: LC50 (the source's name)
HCT-116 = test: NCI60 five-dose screen; type: cell-based; settings: Homo sapiens, HCT-116, colon cancer; for CC50: read-out: LC50 (the source's name)

## O=C(N/N=C/c1ccc[nH]1)c1[nH]c2ccc(Br)cc2c1-c1ccccc1 [Derivative 3a, (E)-N′-((1H-Pyrrol-2-yl)methylene)-5-bromo-3-phenyl-1H-indole-2-carbohydrazide]
[1]
  IC50 at 48 h: 26.3 ± 14.5 µM
[2]
  Selectivity index (SI): 16.4
LOX IMVI
  GI50: 0.244 µM
  CC50: 19 µM
OVCAR-4
  GI50: 0.814 µM
  CC50: 33.6 µM
BT-549
  GI50: 0.375 µM
  CC50: 6.39 µM
SF-539
  GI50: 0.202 µM
  CC50: 14.6 µM
A498
  GI50: 2.57 µM
  CC50: 41.6 µM
DU-145
  GI50: 0.429 µM
  CC50: 33.3 µM
[3]
  IC50: 1.6 ± 1 µM
HOP-92
  GI50: 0.992 µM
  CC50: 26.4 µM
PC-3
  GI50: 0.344 µM
  CC50: 29.6 µM
NCI-H460
  GI50: 0.318 µM
  CC50: 12.5 µM
SNB-75
  GI50: 0.136 µM
  CC50: 16 µM
CAKI-1
  GI50: 0.257 µM
  CC50: 30.9 µM
HT29
  GI50: 0.329 µM
  CC50: 9.31 µM
HOP-62
  GI50: 0.684 µM
  CC50: 32.6 µM
NCI-H226
  GI50: 0.323 µM
  CC50: 23.3 µM
HCT-15
  GI50: 0.269 µM
  CC50: 32.3 µM
K-562
  GI50: 0.202 µM
  CC50: > 100 µM
A549/ATCC
  GI50: 0.357 µM
  CC50: 33.6 µM
OVCAR-3
  GI50: 0.423 µM
  CC50: 35.3 µM
ACHN
  GI50: 0.355 µM
  CC50: 21.2 µM
HCT-116
  GI50: 0.28 µM
  CC50: 32.3 µM

## CCc1c[nH]c(/C=N/NC(=O)c2[nH]c3ccc(Br)cc3c2-c2ccccc2)c1 [Derivative 3t, (E)-5-Bromo-N′-((4-ethyl-1H-pyrrol-2-yl)methylene)-3-phenyl-1H-indole-2-carbohydrazide]
[1]
  IC50 at 48 h: 7.1 ± 3.6 µM
[2]
  Selectivity index (SI): 1.54
LOX IMVI
  GI50: 0.427 µM
  CC50: 8.27 µM
OVCAR-4
  GI50: 2.17 µM
  CC50: 43 µM
BT-549
  GI50: 0.39 µM
  CC50: 23.9 µM
SF-539
  GI50: 0.203 µM
  CC50: 19.6 µM
A498
  GI50: 13.7 µM
  CC50: 54.5 µM
DU-145
  GI50: 0.38 µM
  CC50: 39.5 µM
[3]
  IC50: 4.6 ± 2.9 µM
HOP-92
  GI50: 2.57 µM
  CC50: 33 µM
PC-3
  GI50: 0.529 µM
  CC50: 57 µM
NCI-H460
  GI50: 0.346 µM
  CC50: 20.2 µM
SNB-75
  GI50: 0.44 µM
  CC50: 37.8 µM
CAKI-1
  GI50: 1.05 µM
  CC50: 34.4 µM
HT29
  GI50: 0.308 µM
  CC50: 21 µM
HOP-62
  GI50: 1.35 µM
  CC50: 37.5 µM
NCI-H226
  GI50: 0.33 µM
  CC50: 28 µM
HCT-15
  GI50: 0.319 µM
  CC50: 35.6 µM
K-562
  GI50: 0.348 µM
  CC50: > 100 µM
A549/ATCC
  GI50: 0.397 µM
  CC50: 38.8 µM
OVCAR-3
  GI50: 0.316 µM
  CC50: 41.7 µM
ACHN
  GI50: 0.628 µM
  CC50: 35.5 µM
HCT-116
  GI50: 0.385 µM
  CC50: 40.3 µM

## CCc1cc[nH]c1/C=N/NC(=O)c1[nH]c2ccc(Br)cc2c1-c1ccccc1 [Derivative 3u, (E)-5-Bromo-N′-((3-ethyl-1H-pyrrol-2-yl)methylene)-3-phenyl-1H-indole-2-carbohydrazide]
[1]
  IC50 at 48 h: 12.2 ± 0.7 µM
[2]
  Selectivity index (SI): 1.97
LOX IMVI
  GI50: 2.42 µM
  CC50: 32.3 µM
OVCAR-4
  GI50: 3.33 µM
  CC50: 43.7 µM
BT-549
  GI50: 2.7 µM
  CC50: 34.2 µM
SF-539
  GI50: 3.17 µM
  CC50: 35.6 µM
A498
  GI50: 1.45 µM
  CC50: 55.4 µM
DU-145
  GI50: 4.3 µM
  CC50: 42.3 µM
[3]
  IC50: 6.2 ± 3.6 µM
HOP-92
  GI50: 3.8 µM
  CC50: 44.3 µM
PC-3
  GI50: 3.09 µM
  CC50: 47.6 µM
NCI-H460
  GI50: 1.23 µM
  CC50: 36.7 µM
SNB-75
  GI50: 4.94 µM
  CC50: 43.4 µM
CAKI-1
  GI50: 6.04 µM
  CC50: 45.3 µM
HT29
  GI50: 2.17 µM
  CC50: 39.3 µM
HOP-62
  GI50: 3.77 µM
  CC50: 45.8 µM
NCI-H226
  GI50: 1.97 µM
  CC50: 37.7 µM
HCT-15
  GI50: 1.03 µM
  CC50: 38.8 µM
K-562
  GI50: 2.27 µM
  CC50: 56.2 µM
A549/ATCC
  GI50: 2 µM
  CC50: 41.5 µM
OVCAR-3
  GI50: 3.2 µM
  CC50: 44 µM
ACHN
  GI50: 3.27 µM
  CC50: 36.7 µM
HCT-116
  GI50: 2.5 µM
  CC50: 44 µM
